Reference: ChEMBL document CHEMBL1125955, “Synthesis of new disoxaril analogues with potent and selective anti-human rhinovirus 14 activity” (1991)
Converted amounts (≈) assume the structure as drawn.

Experiments:
Vero [1] = test: Minimum inhibitory concentration (antiviral activity) was screened in Vero cells against herpes simplex virus type 1 (HSV-1); assay type: functional; conditions: Chlorocebus sabaeus
Vero [2] = test: Minimum inhibitory concentration (antiviral activity) was screened in Vero cells against Coxsackie B1 (Coxs); assay type: functional; conditions: Chlorocebus sabaeus
HeLa [3] = test: Maximum testable level (antiviral activity) was evaluated in HeLa cells against human rhino virus; assay type: functional
HeLa [4] = test: Minimum inhibitory concentration (antiviral activity) was evaluated n HeLa cells against human rhino virus; assay type: functional
Vero [5] = test: Maximum testable level was evaluated in Vero cells that causes no apparent effects on cell monolayers.; assay type: functional, Chlorocebus sabaeus
[6] = Selectivity index was determined as ratio of maximum testable level to that of minimum inhibitory concentration; assay type: functional
Vero [7] = test: Minimum inhibitory concentration (antiviral activity) was screened in Vero cells against polio type 1 (Sabin strain, Sb-1); assay type: functional; conditions: Chlorocebus sabaeus
Vero [8] = test: Minimum inhibitory concentration (antiviral activity) was screened in Vero cells against Vesicular Stomatitis virus (VSV); assay type: functional; conditions: Chlorocebus sabaeus
Vero [9] = test: Minimum inhibitory concentration (antiviral activity) was screened in Vero cells against vaccinia virus (VV); assay type: functional; conditions: Chlorocebus sabaeus
[10] = Selectivity index was the ratio of maximum testable level to that of minimum inhibitory concentration in human rhino virus; assay type: functional

SMILES	MIC (Vero [1]) [µM]	MIC (Vero [2]) [µM]	MTL (HeLa [3]) [µM]	MIC (HeLa [4]) [µM]	MTL (Vero [5]) [µM]	Selectivity index [6]	MIC (Vero [7]) [µM]	MIC (Vero [8]) [µM]	MIC (Vero [9]) [µM]	Selectivity index [10]
Cn1cc(C(=O)CCCCOc2ccc(C3=NCCO3)cc2)cc1C=O	> 280	> 280	>565	20 (≈ 7.09 µg/mL)	>280					
O=C(CCCCOc1ccc(C2=NCCO2)cc1)c1ccc(Cl)s1	> 275	> 275	>550	0.1 (≈ 0.0364 µg/mL)	>275	> 5500	200 (≈ 72.8 µg/mL)			
O=C(O)c1ccc(OCCCCCc2ccc(Cl)s2)cc1	> 60	> 60	20	> 20	60		20 (≈ 6.5 µg/mL)			
O=C(CCCCOc1ccc(C2=NCCO2)cc1)c1ccc[nH]1	> 175	> 175	>640	7.5 (≈ 2.34 µg/mL)	>175		60 (≈ 18.7 µg/mL)			
CCOC(=O)c1ccc(OCCCCC(=O)c2cc(C=O)n(C)c2)cc1	> 55		>20	1.4 (≈ 0.5 µg/mL)	55		5 (≈ 1.79 µg/mL)			
Cn1cc(C(=O)CCCCOc2ccc(C(=O)O)cc2)cc1C=O	> 380	> 380	>610	> 50	380		380 (≈ 125 µg/mL)			
CCOC(=O)c1ccc(OCCCCC(=O)c2ccc(C)o2)cc1	75 (≈ 24.8 µg/mL)	60 (≈ 19.8 µg/mL)	65	2.4 (≈ 0.793 µg/mL)	>120		15 (≈ 4.96 µg/mL)	> 120	30 (≈ 9.91 µg/mL)	
O=C(O)c1ccc(OCCCCC(=O)c2ccc(Cl)s2)cc1	> 170	> 170	>590	> 50	>170		30 (≈ 10.2 µg/mL)			
Clc1ccc(CCCCCOc2ccc(C3=NCCO3)cc2)s1	> 30	> 30	>60	2.8 (≈ 0.98 µg/mL)	30		25 (≈ 8.75 µg/mL)			
Cc1cc(CCCCCCCOc2ccc(C3=NCCO3)cc2)on1 [DISOXARIL]			>18	0.4 (≈ 0.137 µg/mL)						45
CCOC(=O)c1ccc(OCCCCC(=O)c2ccc(Cl)s2)cc1	> 190	> 190	>545	0.4 (≈ 0.147 µg/mL)	>190		80 (≈ 29.3 µg/mL)			>1362
Cn1cccc1C(=O)CCCCOc1ccc(C2=NCCO2)cc1	> 300	> 300	>610	1.5 (≈ 0.49 µg/mL)	>300	> 406	300 (≈ 97.9 µg/mL)			
